US20230002360A1, “Heterocycloalkyl compounds as CCR2 / CCR5 antagonists” (SHENZHEN LINGFANG BIOTECH CO.,LTD, priority 2019, published 2023)
pIC50: −log10 of the molar value.

What was measured:
CCR5 = molecular target: T1, CCR5 (Homo sapiens, UniProt P51681); test: FLIPR calcium assay, CCR5 cell line; assay type: cell-based; conditions: HEK293 host cell, RANTES agonist, intracellular calcium signal; read-out: IC50 (nM) test results for FLIPR detection, CCR5
T1 construct: expressed in transfected cells; host or cells: HEK293 (clone C13, passage P4)
Protocol: (§1) The changes in intracellular calcium signal were detected by FLIPR Calcium assay, and the compound's IC50 value was used as an indicator to evaluate inhibitory effect of the compound on CCR2 and CCR5 receptors.
(§2) 1, Cell line: Cells were seeded and incubated overnight in an incubator at 37° C. and 5% CO2.
(§3) CCR2/CCR5 density: 1 M (20K/Well)
(§4) 2, Reagents: Fluo-4 Direct, (Invitrogen, Cat #f10471)
(§5) The compound was dissolved in DMSO to prepare a 10 mM solution, and the compound solution was placed in a nitrogen gas box.
(§6) MCP-1 was serially diluted with FLIPR assay buffer starting from 0.5 μM at a dilution ratio of 1:2 and a total of 10 gradients were diluted (final 100 nM). RANTES is serially diluted with FLIPR assay buffer starting from 0.5 μM at a dilution ratio of 1:3 and a total of 10 gradients were diluted (final 100 nM). According to the compound plate-map, 20 μL of the serially diluted compound buffers were added to each well of the DRC plate respectively.
(§7) The standard compound was diluted with DMSO 1:3 starting from 1 mM at a dilution ratio of 1:3 and a total of 11 gradients were diluted. The test compound was diluted with DMSO 1:3 starting from 2 mM at a dilution ratio of 1:3 and a total of 11 gradients were diluted.
(§8) c) taking the cell plate from the incubator, and gently distributing 20 μL of 2× Fluo-4 Direct non-washing loading buffer to each well of the 384-well cell culture plate using a pipette, wherein each of wells in the cell plate has a final volume of 40 μL.
(§9) d) Incubating at 37° C. and 5% CO2 for 50 minutes, and at room temperature for 10 minutes.
(§10) e) removing the cell plate from the incubator and placing in FLIPR, and putting the composite plate and the tip box into FLIPR.
(§11) 5) Calculating from Read 90 to the maximum allowable “maximum-minimum”, and calculating the EC80 value of each of cell lines by using FLIPR
(§12) 6) Preparing the reference agonist compound at a concentration of 5×EC80
(§13) 2) Transferring […] of the reference agonist compound at a concentration of 5×EC80 from the composite plate to the cell plate.
(§14) 3) Reading the fluorescence signal.
(§15) 4) Calculating from Read 90 to the maximum allowable “maximum-minimum”.
(§16) h) Analyzing the data and calculating the IC50 value of the compound by using Prism.

CCR2 = molecular target: T2, CCR2 (Homo sapiens, UniProt P41597); test: FLIPR calcium assay, CCR2 cell line; assay type: cell-based; conditions: HEK293 host cell, MCP-1 agonist, intracellular calcium signal; read-out: IC50 (nM) test results for FLIPR detection, CCR2
T2 construct: expressed in transfected cells; host or cells: HEK293 (clone C7, passage P6)
Protocol: as §1, §2, §3, §4, §5, §6, §7, §8, §9, §10, §11, §12, §13, §14, §15, §16

CYP2C19 = molecular target: T3, CYP2C19 (Homo sapiens, UniProt P33261); test: Inhibition of human liver microsomal CYP2C19 ((S)-mephenytoin probe); assay type: in vitro ADME; conditions: human liver microsomes, read-out: Half inhibitory concentration IC50, CYP2C19
T3 construct: from tissue; host or cells: human liver microsomes
Protocol: (§17) Experimental Example 2. Inhibition of human liver microsomal cytochrome P450 isoenzymes (CYP1A2, CYP2C9, CYP2C19, CYP2D6 and CYP3A4) activity
(§18) A total of 5 specific probe substrates of 5 CYP isozymes, which are phenacetin (PHenacetin, CYP1A2), diclofenac (Diclofenac, CYP2C9), (S)-mephenytoin ((S)-MepHenytoin, CYP2C19), dextromethorpHan (CYP2D6), and midazolam (Midazolam, CYP3A4), were incubated with human liver microsomes respectively. Then, reduced nicotinamide adenine dinucleotide phosphate (NADPH) was added to initiate reaction. After the reaction, the sample is processed and quantitatively detected for the concentrations of the five metabolites produced from the specific substrate, acetaminophen (AcetaminopHen), 4′-hydroxydiclofenac (4′-Hydroxydiclofenac), 4′-Hydroxymephenytoin (4′-HydroxymepHenytoin), Dextrorphan (DextrorpHan), and 1′-Hydroxymidazolam (1′-Hydroxymidazolam) by liquid chromatography-quadrupole mass spectrometry (LC-MS/MS) method to calculate the corresponding half inhibitory concentration (IC50).

CYP2C9 = molecular target: T4, CYP2C9 (Homo sapiens, UniProt P11712); test: Inhibition of human liver microsomal CYP2C9 (diclofenac probe); assay type: in vitro ADME; conditions: human liver microsomes, read-out: Half inhibitory concentration IC50, CYP2C9
T4 construct: from tissue; host or cells: human liver microsomes
Protocol: as §17, §18

CYP1A2 = molecular target: T5, CYP1A2 (Homo sapiens, UniProt P05177); test: Inhibition of human liver microsomal CYP1A2 (phenacetin probe); assay type: in vitro ADME; conditions: human liver microsomes, read-out: Half inhibitory concentration IC50, CYP1A2
T5 construct: from tissue; host or cells: human liver microsomes
T5 sequence (P05177 1-516): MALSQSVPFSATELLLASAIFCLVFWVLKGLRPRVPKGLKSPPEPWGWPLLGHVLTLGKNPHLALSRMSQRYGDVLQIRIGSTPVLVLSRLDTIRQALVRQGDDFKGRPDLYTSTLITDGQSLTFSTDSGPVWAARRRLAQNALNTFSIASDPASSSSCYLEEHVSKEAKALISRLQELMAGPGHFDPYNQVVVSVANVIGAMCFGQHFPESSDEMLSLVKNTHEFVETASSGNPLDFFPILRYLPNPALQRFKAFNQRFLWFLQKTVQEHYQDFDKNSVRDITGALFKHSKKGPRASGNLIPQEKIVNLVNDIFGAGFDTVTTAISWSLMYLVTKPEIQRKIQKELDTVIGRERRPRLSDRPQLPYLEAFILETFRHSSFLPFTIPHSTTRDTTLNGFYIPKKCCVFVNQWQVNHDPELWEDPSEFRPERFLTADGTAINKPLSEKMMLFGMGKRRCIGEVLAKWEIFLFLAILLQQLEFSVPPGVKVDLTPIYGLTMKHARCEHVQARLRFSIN
Protocol: as §17, §18

CYP2D6 = molecular target: T6, CYP2D6 (Homo sapiens, UniProt P10635); test: Inhibition of human liver microsomal CYP2D6 (dextromethorphan probe); assay type: in vitro ADME; conditions: human liver microsomes, read-out: Half inhibitory concentration IC50, CYP2D6
T6 construct: from tissue; host or cells: human liver microsomes
Protocol: as §17, §18

CYP3A4 = molecular target: T7, CYP3A4 (Homo sapiens, UniProt P08684); test: Inhibition of human liver microsomal CYP3A4 (midazolam probe); assay type: in vitro ADME; conditions: for inhibitory effect on CYP3A4 (in words): conclusion from Table 2; for pIC50: human liver microsomes, midazolam, read-out: Half inhibitory concentration IC50, CYP3A4-M
T7 construct: from tissue; host or cells: human liver microsomes
Protocol: Inhibition of human liver microsomal cytochrome P450 isoenzymes (CYP1A2, CYP2C9, CYP2C19, CYP2D6 and CYP3A4) activity
A total of 5 specific probe substrates of 5 CYP isozymes, which are phenacetin (PHenacetin, CYP1A2), diclofenac (Diclofenac, CYP2C9), (S)-mephenytoin ((S)-MepHenytoin, CYP2C19), dextromethorpHan (CYP2D6), and midazolam (Midazolam, CYP3A4), were incubated with human liver microsomes respectively. Then, reduced nicotinamide adenine dinucleotide phosphate (NADPH) was added to initiate reaction.

[1] = system: human liver microsomal cytochrome P450 isoenzymes; test: Inhibition of human liver microsomal cytochrome P450 isoenzymes, overall conclusion; assay type: in vitro ADME; conditions: conclusion from Table 2
Protocol: as §17, §18

T7 sequence (P08684 whole entry): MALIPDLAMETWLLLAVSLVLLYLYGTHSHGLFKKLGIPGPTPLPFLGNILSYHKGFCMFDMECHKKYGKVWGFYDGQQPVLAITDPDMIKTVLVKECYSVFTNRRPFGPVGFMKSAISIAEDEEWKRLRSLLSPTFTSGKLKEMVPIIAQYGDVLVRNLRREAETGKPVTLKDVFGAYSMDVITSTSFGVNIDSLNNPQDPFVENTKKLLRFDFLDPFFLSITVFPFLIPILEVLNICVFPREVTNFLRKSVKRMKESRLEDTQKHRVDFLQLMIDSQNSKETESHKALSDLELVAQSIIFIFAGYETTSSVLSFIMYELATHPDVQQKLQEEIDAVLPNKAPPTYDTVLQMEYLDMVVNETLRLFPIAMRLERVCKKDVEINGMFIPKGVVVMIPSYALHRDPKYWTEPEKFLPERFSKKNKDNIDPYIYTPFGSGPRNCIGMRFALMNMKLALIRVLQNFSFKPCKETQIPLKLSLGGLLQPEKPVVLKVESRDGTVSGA
T6 sequence (P10635 whole entry): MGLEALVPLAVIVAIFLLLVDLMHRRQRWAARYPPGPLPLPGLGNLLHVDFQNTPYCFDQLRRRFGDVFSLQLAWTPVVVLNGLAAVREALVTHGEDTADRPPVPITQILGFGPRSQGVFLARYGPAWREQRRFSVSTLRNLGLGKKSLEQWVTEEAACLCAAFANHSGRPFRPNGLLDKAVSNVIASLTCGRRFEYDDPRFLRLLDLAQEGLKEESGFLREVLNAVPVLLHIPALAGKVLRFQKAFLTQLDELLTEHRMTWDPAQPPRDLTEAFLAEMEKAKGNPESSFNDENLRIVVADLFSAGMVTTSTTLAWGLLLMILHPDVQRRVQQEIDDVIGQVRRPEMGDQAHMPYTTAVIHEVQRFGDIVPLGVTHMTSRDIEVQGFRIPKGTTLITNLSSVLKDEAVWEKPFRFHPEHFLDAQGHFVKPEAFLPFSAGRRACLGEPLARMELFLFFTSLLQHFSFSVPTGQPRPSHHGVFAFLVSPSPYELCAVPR
T1 sequence (P51681 whole entry, species assumed): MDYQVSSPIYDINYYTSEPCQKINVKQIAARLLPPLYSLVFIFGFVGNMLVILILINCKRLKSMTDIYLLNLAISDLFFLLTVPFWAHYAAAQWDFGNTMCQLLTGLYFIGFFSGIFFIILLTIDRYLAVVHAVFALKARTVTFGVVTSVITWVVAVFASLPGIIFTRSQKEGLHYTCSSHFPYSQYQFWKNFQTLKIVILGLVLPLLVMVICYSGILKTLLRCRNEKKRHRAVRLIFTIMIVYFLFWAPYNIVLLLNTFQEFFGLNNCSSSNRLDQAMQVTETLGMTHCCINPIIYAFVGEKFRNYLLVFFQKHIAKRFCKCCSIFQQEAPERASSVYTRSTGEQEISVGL
T4 sequence (P11712 whole entry): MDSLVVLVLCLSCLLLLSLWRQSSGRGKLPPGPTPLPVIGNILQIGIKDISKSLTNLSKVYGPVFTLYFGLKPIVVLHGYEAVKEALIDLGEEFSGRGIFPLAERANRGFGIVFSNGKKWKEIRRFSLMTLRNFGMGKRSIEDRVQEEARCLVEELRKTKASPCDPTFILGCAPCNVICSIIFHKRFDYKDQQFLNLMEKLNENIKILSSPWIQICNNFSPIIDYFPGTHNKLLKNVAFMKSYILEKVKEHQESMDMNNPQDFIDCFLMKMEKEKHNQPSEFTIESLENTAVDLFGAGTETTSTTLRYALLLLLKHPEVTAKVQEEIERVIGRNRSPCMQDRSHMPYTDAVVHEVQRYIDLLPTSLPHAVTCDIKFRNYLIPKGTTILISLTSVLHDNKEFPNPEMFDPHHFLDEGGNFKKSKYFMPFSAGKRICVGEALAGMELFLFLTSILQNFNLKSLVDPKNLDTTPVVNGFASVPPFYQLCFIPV
T2 sequence (P41597 whole entry, species assumed): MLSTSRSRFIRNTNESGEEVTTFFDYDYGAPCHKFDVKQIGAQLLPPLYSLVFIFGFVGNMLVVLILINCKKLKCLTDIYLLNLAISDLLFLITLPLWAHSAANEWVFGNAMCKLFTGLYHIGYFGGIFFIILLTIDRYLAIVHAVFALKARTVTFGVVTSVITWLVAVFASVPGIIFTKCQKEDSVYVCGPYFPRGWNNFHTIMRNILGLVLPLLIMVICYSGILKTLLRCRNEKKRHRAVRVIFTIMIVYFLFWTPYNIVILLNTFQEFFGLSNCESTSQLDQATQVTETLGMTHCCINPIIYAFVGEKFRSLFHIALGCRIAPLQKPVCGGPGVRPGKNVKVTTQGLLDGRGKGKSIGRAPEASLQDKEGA
T3 sequence (P33261 whole entry): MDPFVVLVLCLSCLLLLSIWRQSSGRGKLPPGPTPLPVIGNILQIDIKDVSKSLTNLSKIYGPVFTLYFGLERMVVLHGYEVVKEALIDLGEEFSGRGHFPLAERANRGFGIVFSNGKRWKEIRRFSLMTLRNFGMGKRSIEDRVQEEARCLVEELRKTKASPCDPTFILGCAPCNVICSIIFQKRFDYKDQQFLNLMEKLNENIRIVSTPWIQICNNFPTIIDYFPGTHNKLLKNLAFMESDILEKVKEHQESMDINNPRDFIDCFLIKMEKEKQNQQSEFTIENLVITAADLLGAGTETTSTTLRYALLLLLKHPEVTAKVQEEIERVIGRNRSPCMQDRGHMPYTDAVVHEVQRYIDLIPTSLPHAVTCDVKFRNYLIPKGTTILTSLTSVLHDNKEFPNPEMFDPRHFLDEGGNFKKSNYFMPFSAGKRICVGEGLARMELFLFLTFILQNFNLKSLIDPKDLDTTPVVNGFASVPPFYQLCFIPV

Compound: CCCCOCCOc1ccc(-c2ccc3c(c2)/C=C(/C(=O)Nc2ccc([S@+]([O-])Cc4c(C)ncn4CC)cc2)CCCN3CC2COCCO2)cc1 (some centres unmarked) [WX026]
- IC50 (CCR5): 1.37 nM
- IC50 (CCR2): 0.69 nM

Compound: CCCCOCCOc1ccc(-c2ccc3c(c2)/C=C(/C(=O)Nc2ccc([S@+]([O-])Cc4c(C)ncn4CC)cc2)CCCN3CC2CCOCC2)cc1 [WX001]
- IC50 (CCR5): 4.25 nM
- pIC50 (CYP2C19): 5.85
- IC50 (CCR2): 1.33 nM
- pIC50 (CYP2C9): < 4.30
- pIC50 (CYP1A2): < 4.30
- pIC50 (CYP2D6): < 4.30
- inhibitory effect on CYP3A4 (in words) (CYP3A4): no inhibitory effect
- pIC50 (CYP3A4): < 4.30

Compound: CCCCOCCOc1ccc(-c2ccc3c(c2)/C=C(/C(=O)Nc2ccc([S@+]([O-])Cc4c(C)ncn4CC)cc2)CCCN3CC2CCCCO2)cc1 (some centres unmarked) [WX008]
- IC50 (CCR5): 6.04 nM
- IC50 (CCR2): 3.4 nM

Compound: CCCCOCCOc1ccc(-c2ccc3c(c2)/C=C(/C(=O)Nc2ccc([S@+]([O-])Cc4c(C)ncn4CC)cc2)CCCCN3CC2CCCOC2)cc1 (some centres unmarked) [WX007]
- IC50 (CCR5): 6.18 nM
- IC50 (CCR2): 6.76 nM

Compound: CCCCOCCOc1ccc(-c2ccc3c(c2)/C=C(/C(=O)Nc2ccc([S@+]([O-])Cc4c(C)ncn4CC)cc2)CCCN3CC2COCCO2)cc1 (some centres unmarked) [WX025]
- IC50 (CCR5): 1.38 nM
- IC50 (CCR2): 0.69 nM

Compound: CCCCOCCOc1ccc(-c2ccc3c(c2)/C=C(/C(=O)Nc2ccc([S@+]([O-])Cc4c(C)ncn4CC)cc2)CCCCN3CC2COC2)cc1 [WX005]
- IC50 (CCR5): 4.2 nM
- IC50 (CCR2): 9.2 nM

Compound: CCCCOCCOc1ccc(-c2ccc3c(c2)/C=C(/C(=O)Nc2ccc([S@+]([O-])Cc4c(C)ncn4CC)cc2)CCCN3CC2CCOC2)cc1 (some centres unmarked) [WX014]
- IC50 (CCR5): 6.28 nM
- IC50 (CCR2): 3.78 nM

Compound: CCCCOCCOc1ccc(-c2ccc3c(c2)/C=C(/C(=O)Nc2ccc([S@@+]([O-])Cc4cncn4CCC)cc2)CCCN3CC(C)C)cc1 [(CVC), Cenicriviroc, reference compound]
- pIC50 (CYP2C19): < 4.30
- pIC50 (CYP2C9): < 4.30
- pIC50 (CYP1A2): < 4.30
- pIC50 (CYP2D6): < 4.30
- inhibitory effect on CYP3A4 (in words) (CYP3A4): strong inhibitory effect
- pIC50 (CYP3A4): 6.12

Compound: CCCCOCCOc1ccc(-c2ccc3c(c2)C=C(C(=O)Nc2ccc([S@+]([O-])Cc4c(C)ncn4CC)cc2)CCN3CC2CCN(C)CC2)cc1 [WX018]
- IC50 (CCR5): 3.35 nM
- IC50 (CCR2): 17.9 nM

Compound: CCCCOCCOc1ccc(-c2ccc3c(c2)/C=C(/C(=O)Nc2ccc([S@+]([O-])Cc4c(C)ncn4CC)cc2)CCCN3CC2CCCO2)cc1 (some centres unmarked) [WX027]
- IC50 (CCR5): 1.44 nM
- IC50 (CCR2): 0.41 nM

Compound: CCCCOCCOc1ccc(-c2ccc3c(c2)/C=C(/C(=O)Nc2ccc([S@@+]([O-])Cc4cncn4CCC)cc2)CCCN3CC2CC2)cc1 [Reference A, reference compound]
- pIC50 (CYP2C19): < 4.30
- pIC50 (CYP2C9): < 4.30
- pIC50 (CYP1A2): < 4.30
- pIC50 (CYP2D6): < 4.30
- inhibitory effect on CYP3A4 (in words) (CYP3A4): strong inhibitory effect
- pIC50 (CYP3A4): 6.10

Compound: CCCCOCCOc1ccc(-c2ccc3c(c2)/C=C(/C(=O)Nc2ccc([S@@+]([O-])Cc4c(C)ncn4CC)cc2)CCCN3CC2CCOCC2)cc1 [WX002]
- risk of inhibiting the activity of human liver microsomal cytochrome P450 isoenzymes (in words) [1]: no risk of inhibiting the activity
- pIC50 (CYP2C19): < 4.30
- IC50 (CCR2): 3 nM
- pIC50 (CYP2C9): 4.96
- pIC50 (CYP1A2): < 4.30
- pIC50 (CYP2D6): < 4.30
- pIC50 (CYP3A4): 4.88

Compound: CCCCOCCOc1ccc(-c2ccc3c(c2)/C=C(/C(=O)Nc2ccc([S@+]([O-])Cc4c(C)ncn4CC)cc2)CCCCN3CC2CCCOC2)cc1 (some centres unmarked) [WX006]
- IC50 (CCR5): 8.44 nM
- IC50 (CCR2): 7.51 nM

Compound: CCCCOCCOc1ccc(-c2ccc3c(c2)C=C(C(=O)Nc2ccc([S@+]([O-])Cc4c(C)ncn4CC)cc2)CCN3CC2CCCOC2)cc1 (some centres unmarked) [WX003]
- IC50 (CCR5): 8.27 nM
- IC50 (CCR2): 37 nM

Compound: CCCCOCCOc1ccc(-c2ccc3c(c2)/C=C(/C(=O)Nc2ccc([S@@+]([O-])Cc4c(C)ncn4CC)cc2)CCCN3CC2CCOCC2)cc1 [WX017]
- IC50 (CCR2): 2.47 nM

Compound: CCCCOCCOc1ccc(-c2ccc3c(c2)/C=C(/C(=O)Nc2ccc([S@+]([O-])Cc4c(C)ncn4CC)cc2)CCCN3C[C@H]2CCCO2)cc1 [WX028]
- IC50 (CCR5): 3.15 nM
- IC50 (CCR2): 1.19 nM

Compound: CCCCOCCOc1ccc(-c2ccc3c(c2)/C=C(/C(=O)Nc2ccc([S@+]([O-])Cc4c(C)ncn4CC)cc2)CCCN3CC2CCN(C)CC2)cc1 [WX009]
- IC50 (CCR5): 6.78 nM
- IC50 (CCR2): 4.38 nM

Compound: CCCCOCCOc1ccc(-c2ccc3c(c2)/C=C(/C(=O)Nc2ccc([S@+]([O-])Cc4c(C)ncn4CC)cc2)CCCN3CC2CCOC2)cc1 (some centres unmarked) [WX013]
- IC50 (CCR5): 5.45 nM
- IC50 (CCR2): 3.11 nM

Compound: CCCCOCCOc1ccc(-c2ccc3c(c2)/C=C(/C(=O)Nc2ccc([S@+]([O-])Cc4c(C)ncn4CC)cc2)CCCN3CC2COC2)cc1 [WX004]
- IC50 (CCR5): 6.3 nM
- IC50 (CCR2): 3.04 nM
